Experimental data published in patent US20080249123A1, “WORTMANNIN-RAPAMYCIN CONJUGATE AND USES THEREOF” (Wyeth, priority 2007, published 2008).

Columns and labels:
[1] = system: A498 renal cell carcinoma xenograph; experiment: In vivo anticancer efficacy in HTB44/A498 renal cell carcinoma model; conditions: conjugate i.v. 1× weekly 15 mg/kg, 2 rounds; Intron A ip 3× weekly 0.5 mU, 2 weeks
Description: This study utilized a model of renal cancer performed as previously described. See, e.g., Yu K, et al., PWT-458, A Novel Pegylated-17-Hydroxywortmannin, Inhibits Phosphatidylinositol 3-Kinase Signaling and Suppresses Growth of Solid Tumors. Cancer Biol Ther. May 28, 2005; 4(5).
On day 23 the Vehicle group ([…]) was redosed with a combination 42,17′-linked wortmannin-suberate-rapamycin N,N,N′-trimethyl 1,3-propanediamine adduct (30 mg/kg) and the Avastin® drug (200 μg) for five rounds. On day 43, the 42,17′-linked wortmannin-suberate-rapamycin conjugate, N,N,N′-trimethyl 1,3-propanediamine adduct group (30 mg/kg) and the Avastin® drug group (200 μg) were redosed with a combination of 42,17′-linked wortmannin-suberate-rapamycin conjugate, N,N,N′-trimethyl 1,3-propanediamine adduct and the Avasting drug for three rounds.

MCF7 = experiment: In vitro cell culture growth assay (MTS), MCF7; type: cell-based, Human; conditions: breast line, 3 days after drug treatment
Description: (§1) Human tumor cell lines (Table 3) include prostate lines LNCap and PC3MM2, breast lines MDA468, MCF7, renal line HTB44 (A498), colon line HCT116, and ovarian line OVCAR3. Cells were plated in 96-well culture plates.
(§2) One day following plating, the following conjugates (inhibitors) were added to cells: • Compound A 42,17′-linked wortmannin-adipate-rapamycin conjugate, diethylamine adduct • Compound B 42,17′-linked wortmannin-adipate-rapamycin conjugate. • Compound C 42,17′-linked wortmannin-succinate-rapamycin conjugate, N,N,N′-trimethyl 1,3-propanediamine adduct • Compound D 42,17′-linked wortmannin-adipate-rapamycin conjugate, diallylamine adduct • Compound E 42,17′-linked wortmannin-adipate-rapamycin conjugate, N,N,N′-trimethyl 1,3-propanediamine adduct • Compound F 42,17′-linked wortmannin-suberate-rapamycin conjugate, N,N,N′-trimethyl 1,3-propanediamine adduct.
(§3) Three days after drug treatment, viable cell densities were determined by metabolic conversion (by viable cells) of the MTS dye (3-(4,5-dimethylthiazol-2-yl)-5-(3 carboxymethoxyphenyl)-2-(4-sulfophenyl)-2H-tetrazolium, inner salt), a well established cell proliferation assay. The assays were performed using an assay kit purchased from Promega Corp. (Madison, Wis.) following the protocol supplied with the kit. The MTS assay results were read in a 96-well plate reader by measuring absorbance at 490 nm. The effect of each treatment was calculated as percent of control growth relative to the vehicle-treated cells grown in the same culture plate. The drug concentration that conferred 50% inhibition of growth was determined as IC50 (μg/mL). See, Table 3.

LNCap = experiment: In vitro cell culture growth assay (MTS), LNCap; type: cell-based, Human; conditions: prostate line, 3 days after drug treatment
Description: as §1, §2, §3

MDA468 = experiment: In vitro cell culture growth assay (MTS), MDA468; type: cell-based, Human; conditions: breast line, 3 days after drug treatment
Description: as §1, §2, §3

OVCAR3 = experiment: In vitro cell culture growth assay (MTS), OVCAR3; type: cell-based, Human; conditions: ovarian line, 3 days after drug treatment
Description: as §1, §2, §3

HCT116 = experiment: In vitro cell culture growth assay (MTS), HCT116; type: cell-based, Human; conditions: colon line, 3 days after drug treatment
Description: as §1, §2, §3

PC3MM2 = experiment: In vitro cell culture growth assay (MTS), PC3MM2; type: cell-based, Human; conditions: prostate line, 3 days after drug treatment
Description: as §1, §2, §3

[2] = system: HT29 colon tumor xenograph; type: in vivo; conditions: 1× weekly for four rounds
Description: The effect of 42,17′-linked wortmannin-suberate-rapamycin conjugate, N,N,N′-trimethyl 1,3-propanediamine adduct, prepared as described in Example 4 was studied in a model of human colon cancer.
The 42,17′-linked wortmannin-suberate-rapamycin conjugate, N,N,N′-trimethyl 1,3-propanediamine adduct (▪, 15 mg/kg), rapamycin (▴, 10 mg/kg), 17-hydroxywortmannin N,N,N′-trimethyl 1,3-propanediamine adduct (▾, 5 mg/kg) and a physical combination of rapamycin (10 mg/kg) and 17-hydroxywortmannin N,N,N′-trimethyl 1,3-propanediamine adduct (5 mg/kg) were dosed 1× weekly for four rounds against a HT29 colon tumor xenograph. Vehicle served as a negative control ([…]).

U87MG Glioma Xenografts = experiment: Xenograft tumor efficacy study, U87MG glioma in nude mice; type: in vivo
Description: Female nude mice at 10 weeks of age were inoculated subcutaneously on the flank with 200 μL U87MG (human gliobastoma) tumor cell suspension. U87MG cells were suspended in full growth media and were implanted at 10 million cells per mouse. Mice were staged when tumors reached approximately 200 mm^3 in sizes. Tumor bearing mice at staging (day 0) were randomized into treatment groups (n=10). […]
The growth of tumors was monitored twice a week for the duration of the experiment. Tumor size was measured using sliding vernier calipers, and the tumor mass was calculated using the formula (length×Width^2)/2.
The experimental methods for drug preparation, dosing route, regimen, etc (listed in the Table 4) were similar to the experiments presented in the Figures. The data in Table 4 and the Figures were derived from multiple and completely different experiments. Within Table 4, the data contained separate experiments.

HTB44 (A498) = experiment: In vitro cell culture growth assay (MTS), HTB44 (A498); type: cell-based, Human; conditions: renal line, 3 days after drug treatment
Description: as §1, §2, §3

42,17′-linked wortmannin-suberate-rapamycin conjugate, N,N,N′-trimethyl 1,3-propanediamine adduct [Compound F]
antitumor activity (FIG. 6) [1]: increased antitumor activity as compared to vehicle and Intron® A reagent alone | IC50 inhibition of tumor cell growth, MCF7 (MCF7): 0.24 µg/mL | IC50 inhibition of tumor cell growth, LNCap (LNCap): 0.06 µg/mL | IC50 inhibition of tumor cell growth, MDA468 (MDA468): 0.50 µg/mL | IC50 inhibition of tumor cell growth, OVCAR3 (OVCAR3): 6.48 µg/mL | IC50 inhibition of tumor cell growth, HCT116 (HCT116): 12.75 µg/mL | IC50 inhibition of tumor cell growth, PC2MM2 (PC3MM2): 1.00 µg/mL | tolerability (FIG. 5) ([2]; 15 mg/kg, in contrast to physical combination): better tolerated | tumor reduction (FIG. 5) ([2]; conjugate 15 mg/kg, combination rapamycin 10 mg/kg + 17-hydroxywortmannin adduct 5 mg/kg): significant tumor reduction | antitumor efficacy versus physical combination (FIG. 3) (U87MG Glioma Xenografts; 15 mg/kg, 1× weekly for 2 rounds): at least as active as the physical combination | efficacy after a single dose (FIG. 4) (U87MG Glioma Xenografts; single dose 30, 45 and 60 mg/kg): effective in the intermittent regimen | IC50 inhibition of tumor cell growth, HTB44 (HTB44 (A498)): 2.10 µg/mL
